Legend:
ALOMY [1] = experiment: Pre-emergence action against ALOMY, 1280 g/ha; assay type: in vivo, Alopecurus myosuroides; conditions: visual scoring after about 3 weeks vs untreated controls, 100% = plants have died, 0% = like control plants
Procedure, shortened: (§1)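 Weed seeds sown in sandy loam in pots, covered with soil; compound as WP or EC applied to soil surface as aqueous suspension/emulsion with 0.5% additive at 600 L/ha water. Greenhouse, good growth conditions; visual % damage vs untreated controls after about 3 weeks (100% = plants dead, 0% = like control).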

VERPE = experiment: Pre-emergence action against VERPE, 1280 g/ha; assay type: in vivo, Veronica persica; conditions: scored visually after about 3 weeks vs untreated controls (100% = plants have died); for pest or weed control at 1280 g/ha: Veronica persica, 504 h
Procedure, shortened: as §1

ECHGC = experiment: Pre-emergence action at 320 g/ha against ECHGC; assay type: in vivo, Echinochloa crus-galli; conditions: visual scoring after about 3 weeks vs untreated controls
Procedure, shortened: (§2)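 Sow seeds, cover with soil, spray soil surface (WP/EC, 0.5% additive, 600 l/ha water), hold in greenhouse ~3 wk, then rate % activity visually against untreated controls.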

LOLRI [2] = experiment: Pre-emergence action at 320 g/ha against LOLRI; assay type: in vivo, Lolium rigidum; conditions: visual scoring after about 3 weeks vs untreated controls; for pest or weed control at 320 g/ha: Lolium rigidum, 504 h
Procedure, shortened: as §2

MATIN [3] = experiment: Pre-emergence action at 320 g/ha against MATIN; assay type: in vivo, Tripleurospermum inodorum (Matricaria inodora); conditions: visual scoring after about 3 weeks vs untreated controls; for pest or weed control at 320 g/ha: Tripleurospermum inodorum, 504 h
Procedure, shortened: as §2

VIOTR [4] = experiment: Pre-emergence action at 320 g/ha against VIOTR; assay type: in vivo, Viola tricolor; conditions: dosage 320 g/ha; for pest or weed control at 320 g/ha: Viola tricolor, 504 h
Procedure, shortened: as §2

ALOMY [5] = experiment: Post-emergence action against ALOMY, 320 g/ha; assay type: in vivo, Alopecurus myosuroides; conditions: dosage 320 g/ha, visual rating about 3 weeks after treatment vs untreated controls (100% = plants died)
Procedure, shortened: (§3)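 Sow in sandy loam → greenhouse growth 2–3 wk → spray at one-leaf stage (WP/EC, aqueous, +0.5% additive, 600 l/ha) → hold ~3 wk under optimum conditions → visual rating, 0–100% relative to untreated.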

ABUTH [6] = experiment: Post-emergence action at 320 g/ha against ABUTH; assay type: in vivo, Abutilon theophrasti; conditions: visual rating about 3 weeks after treatment vs untreated controls
Procedure, shortened: as §3

SETVI = experiment: Post-emergence action at 320 g/ha against SETVI; assay type: in vivo, Setaria viridis; conditions: visual rating about 3 weeks after treatment vs untreated controls
Procedure, shortened: as §3

PHBPU = experiment: Post-emergence action at 320 g/ha against PHBPU; assay type: in vivo; conditions: visual rating about 3 weeks after treatment vs untreated controls
Procedure, shortened: as §3

DIGSA = experiment: Post-emergence action against DIGSA, 1.28 kg/ha; assay type: in vivo, Digitaria sanguinalis; conditions: dosage 1280 g/ha, visual rating about 3 weeks after treatment vs untreated controls
Procedure, shortened: (§4)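 Activity scored visually roughly 3 weeks after treatment against untreated plants (0% = as control, 100% = dead). Plants grown in sandy loam in greenhouse, treated at one-leaf stage, 2–3 weeks post-sowing, with WP/EC spray containing 0.5% additive at 600 l/ha.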

ECHCG = experiment: Post-emergence action against ECHCG, 1.28 kg/ha; assay type: in vivo, Echinochloa crus-galli; conditions: dosage 1280 g/ha, visual rating about 3 weeks after treatment vs untreated controls; for pest or weed control at 1280 g/ha: Echinochloa crus-galli, 504 h
Procedure, shortened: as §4

ABUTH [7] = experiment: Post-emergence action against ABUTH, 1.28 kg/ha; assay type: in vivo, Abutilon theophrasti; conditions: dosage 1280 g/ha, visual rating about 3 weeks after treatment vs untreated controls (100% = plants died)
Procedure, shortened: as §4

VIOTR [8] = experiment: Post-emergence action at 320 g/ha against VIOTR; assay type: in vivo, Viola tricolor; conditions: visual rating about 3 weeks after treatment vs untreated controls; for pest or weed control at 320 g/ha: Viola tricolor, 504 h
Procedure, shortened: as §3

MATIN [9] = experiment: Post-emergence action against MATIN, 1.28 kg/ha; assay type: in vivo, Tripleurospermum inodorum (Matricaria inodora); conditions: dosage 1280 g/ha, visual rating about 3 weeks after treatment vs untreated controls (100% = plants died)
Procedure, shortened: as §4

LOLRI [10] = experiment: Post-emergence action against LOLRI, 1.28 kg/ha; assay type: in vivo, Lolium rigidum; conditions: dosage 1280 g/ha, visual rating about 3 weeks after treatment vs untreated controls
Procedure, shortened: as §4

SMILES	Pre-emergence action against ALOMY (ALOMY [1])	pest or weed control at 1280 g/ha (VERPE)	Pre-emergence action against ECHGC in % (ECHGC)	pest or weed control at 320 g/ha (LOLRI [2])	pest or weed control at 320 g/ha (MATIN [3])	pest or weed control at 320 g/ha (VIOTR [4])	Post-emergence action against ALOMY (ALOMY [5])	Post-emergence action against ABUTH in % (ABUTH [6])	Post-emergence action against SETVI in % (SETVI)	Post-emergence action against PHBPU in % (PHBPU)	Pre-emergence action against VERPE (VERPE)	Pre-emergence action against LOLRI in % (LOLRI [2])	Pre-emergence action against MATIN in % (MATIN [3])	Pre-emergence action against VIOTR in % (VIOTR [4])	Post-emergence action against DIGSA (DIGSA)	Post-emergence action against ECHCG (ECHCG)	Post-emergence action against ABUTH (ABUTH [7])	Post-emergence action against VIOTR in % (VIOTR [8])	Post-emergence action against MATIN (MATIN [9])	pest or weed control at 1280 g/ha (ECHCG)	also measured
C=CCNC(=O)COc1nn(-c2ccccc2F)c(-c2ccc(F)nc2)c1Br [Example X-001, N-Allyl-2-{[4-bromo-1-(2-fluorophenyl)-5-(6-fluoropyridin-3-yl)-1H-pyrazol-3-yl]oxy}acetamide]	90%	100%	100%	100%	90%	100%	90%	80%	90%	80%	–	–	–	–	–	–	–	–	–	–	–
COC(=O)CNC(=O)COc1nn(-c2ccccc2F)c(-c2ccc(F)nc2)c1Br [Example X-002]	100%	–	100%	–	–	–	100%	90%	90%	90%	100%	100%	100%	100%	100%	90%	90%	90%	–	–	–
CS(=O)(=O)NC(=O)COc1nn(-c2ccccc2F)c(-c2ccc(F)nc2)c1Br [Example X-004]	90%	–	90%	–	–	–	100%	80%	90%	90%	90%	100%	90%	100%	100%	100%	–	80%	90%	–	–
COC(=O)COc1nn(-c2ccccc2F)c(-c2cncnc2)c1Br [VI-004, Methyl {[4-bromo-1-(2-fluorophenyl)-5-(pyrimidin-5-yl)-1H-pyrazol-3-yl]oxy}acetate]	–	90%	–	90%	100%	100%	–	80%	80%	80%	–	–	–	–	–	–	90%	–	100%	90%	Post-emergence action against LOLRI (LOLRI [10]): 100%; pest or weed control at 320 g/ha (VIOTR [8]): 80%
O=C(O)COc1nn(-c2ccccc2F)c(-c2cncnc2)c1Br [VI-007, {[4-Bromo-1-(2-fluorophenyl)-5-(pyrimidin-5-yl)-1H-pyrazol-3-yl]oxy}acetic Acid]	90%	90%	–	100%	100%	100%	–	90%	–	90%	–	–	–	–	100%	–	–	–	90%	100%	pest or weed control at 320 g/ha (VIOTR [8]): 90%
C[C@@H](Oc1nn(-c2ccccc2F)c(-c2cncnc2)c1Br)C(=O)O [VI-012]	90%	–	80%	–	–	–	–	80%	90%	80%	100%	90%	90%	100%	90%	100%	–	100%	–	–	Post-emergence action against LOLRI (LOLRI [10]): 90%
COC(=O)COc1nn(-c2ccc(F)cc2)c(-c2ccc(F)nc2)c1Br [VII-002]	–	–	90%	–	–	–	100%	80%	80%	90%	–	–	100%	–	–	90%	90%	90%	90%	–	–
O=C(O)COc1nn(-c2ccccc2F)c(-c2ccc(F)nc2)c1Br [VII-003, {[4-Bromo-1-(2-fluorophenyl)-5-(6-fluoropyridin-3-yl)-1H-pyrazol-3-yl]oxy}acetic acid]	90%	90%	100%	100%	90%	100%	80%	80%	–	90%	–	–	–	–	100%	–	–	–	100%	90%	Post-emergence action against LOLRI (LOLRI [10]): 100%; pest or weed control at 320 g/ha (VIOTR [8]): 90%
CCOC(=O)COc1nn(-c2ccccc2F)c(-c2ccc(F)nc2)c1C(F)(F)F [VII-010]	100%	–	100%	–	–	–	90%	80%	90%	90%	100%	100%	100%	100%	100%	100%	90%	80%	90%	–	–
COC(=O)C(C)Oc1nn(-c2ccccc2)c(-c2ccc(F)nc2)c1Cl (stereo not drawn) [VII-023, Methyl 2-{[4-chloro-5-(6-fluoropyridin-3-yl)-1-phenyl-1H-pyrazol-3-yl]oxy}propanoate]	–	100%	90%	100%	90%	100%	90%	90%	–	90%	–	–	–	–	90%	–	–	–	90%	90%	Post-emergence action against LOLRI (LOLRI [10]): 100%; pest or weed control at 320 g/ha (VIOTR [8]): 80%
O=C(O)COc1nn(-c2ccccc2F)c(-c2cncc(F)c2)c1Br [VII-025]	100%	–	100%	–	–	–	100%	90%	100%	90%	100%	90%	100%	100%	100%	100%	90%	90%	90%	–	–

Reference: US12180187B2, “1-phenyl-5-azinylpyrazolyl-3-oxyalkyl acids and their use for controlling unwanted plant growth” (BAYER AKTIENGESELLSCHAFT, priority 2019, dated 2024)
